Reference: patent US12221422B2, “Compounds and their use for the treatment of alpha1-antitrypsin deficiency” (CENTESSA PHARMACEUTICALS (UK) LIMITED, priority 2018, dated 2025)

Tests used:
human Z A1AT = human Z A1AT (Homo sapiens, UniProt P01009, E366K); test: A1AT cell secretion assay using HEK-Z cells (ELISA); type: cell-based; design: expressed in transfected cells; host or cells: HEK-Z (HEK-EBNA cells containing the Z A1AT plasmid); conditions: HEK-Z cells, 10, 33, 100 and 333 nM, 48 h, cell supernatant
Method: HEK-Z cells, a human embryonic kidney cell line stably transfected with the human Z A1AT gene, were plated into 96 well plates (3.0×10^5 cells/ml with 200 μl of media/well) overnight at 37° C. in a humidified atmosphere containing 5% CO2. Following incubation cells were washed with 200 μl serum-free media three times and media was replaced with treatments in quadruplicate using serum-free media containing either vehicle, 10 μM suberanilohydroxamic acid (SAHA), N,N-dimethyl-4-((6-oxopyrimidin-1(6H)-yl)methyl)benzamide (at concentrations of 10, 33, 100 and 333 nM), N,N-(bis-methyl-d3)-4-((6-oxopyrimidin-1(6H)-yl)methyl)benzamide (at concentrations of 10, 33, 100 and 333 nM) or N-methyl-4-((6-oxopyrimidin-1(6H)-yl)methyl)benzamide (at concentrations of 10, 33, 100 and 333 nM) for 48 h in a 37° C. incubator in a final volume of 200 μl. At the end of the incubation step the supernatants were removed from the wells, centrifuged at 1000×g at 4° C. for 10 min and were assayed for human A1AT levels by ELISA (Human Serpin A1/α1-antitrypsin duo set ELISA, R& D Systems, DY1268) per manufacturer's instructions.
(§1) Briefly, a 96 well plate was coated with human A1AT capture antibody overnight at room temperature (1:180 dilution from stock, 100 μl final volume/well). The capture antibody was then removed and wells washed three times with 300 μl wash buffer (0.05% Tween 20 in PBS) and then 200 μl reagent diluent (25% Tween 20 in PBS) was incubated in each well for 1 h at room temperature. […] After which, 50 μl stop solution (2M H2SO4) was added and optical density (OD) of each well was read at 450 nm with 570 nm blank subtracted from each well using a microplate reader. A 4 parameter logistic curve was constructed using GraphPad Prism 7 and A1AT concentrations were determined in each sample by interpolation from a standard curve and multiplying by the appropriate dilution factor.
(§2) The amount of A1AT secreted from transfected HEK-EBNA cells into the media was measured by ELISA. […]

Pharmacokinetics in rats = type: in vivo; conditions: rat, whole blood, Sprague Dawley rats, iv 2 mg/kg or oral 10 mg/kg; for half-life: read-out: Half-life in blood (t1/2); for clearance: read-out: Observed clearance; for Vd: read-out: Volume of distribution (Vz)
Method: Compounds were administered to Sprague Dawley rats intravenously (2 mg/kg) or orally (10 mg/kg) by gavage. Whole blood diluted with water was prepared from these dosed animals over a time course up to 24 hours post dose to allow blood concentrations of drug to be measured by UPLC-MS/MS.

human Siiyama A1AT = target: T1, human Siiyama A1AT (Homo sapiens, UniProt P01009, S77F); test: A1AT cell secretion assay using HEK-Siiyama cells (ELISA); type: cell-based; conditions: 10 μM, 48 h, positive control
T1 construct: expressed in transfected cells; host or cells: HEK-Siiyama (HEK-EBNA cells containing the Siiyama A1AT plasmid)
Method: (§3) HEK-Siiyama cells, a human embryonic kidney cell line stably transfected with the human Siiyama A1AT gene, were plated into 96 well plates (3.0×10^5 cells/ml with 200 μl of media/well) overnight at 37° C. in a humidified atmosphere containing 5% CO2. Following incubation cells were washed with 200 μl serum-free media three times and media was replaced with serum-free media containing either vehicle, 10 μM suberanilohydroxamic acid (SAHA) or a compound of the invention (at 1 or 10 μM) in replicates of eight for 48 h in a 37° C. incubator in a final volume of 200 μl. […]
as §1, with “volume/well).” for “volume/well). The capture antibody was then removed and wells washed three times with 300 μl wash buffer (0.05% Tween 20 in PBS) and then 200 μl reagent diluent (25% Tween 20 in PBS) was incubated in each well for 1 h at room temperature.”
The amount of human A1AT secreted from transfected HEK-EBNA cells into the media was measured by ELISA. […]

human M A1AT = target: T2, human M A1AT (Homo sapiens, UniProt P01009); test: A1AT cell secretion assay using HEK-M cells (ELISA); type: cell-based; conditions: 10 μM, 48 h
T2 construct: expressed in transfected cells; host or cells: HEK-M (HEK-EBNA cells containing the M A1AT plasmid)
Method: as §3, with “HEK-M” for “HEK-Siiyama”, “M” for “Siiyama”, “(at” for “(at 1 or”, “six” for “eight”
as §1, with “volume/well).” for “volume/well). The capture antibody was then removed and wells washed three times with 300 μl wash buffer (0.05% Tween 20 in PBS) and then 200 μl reagent diluent (25% Tween 20 in PBS) was incubated in each well for 1 h at room temperature.”
as §2

Chain of human Z A1AT (P01009 25-418 E366K): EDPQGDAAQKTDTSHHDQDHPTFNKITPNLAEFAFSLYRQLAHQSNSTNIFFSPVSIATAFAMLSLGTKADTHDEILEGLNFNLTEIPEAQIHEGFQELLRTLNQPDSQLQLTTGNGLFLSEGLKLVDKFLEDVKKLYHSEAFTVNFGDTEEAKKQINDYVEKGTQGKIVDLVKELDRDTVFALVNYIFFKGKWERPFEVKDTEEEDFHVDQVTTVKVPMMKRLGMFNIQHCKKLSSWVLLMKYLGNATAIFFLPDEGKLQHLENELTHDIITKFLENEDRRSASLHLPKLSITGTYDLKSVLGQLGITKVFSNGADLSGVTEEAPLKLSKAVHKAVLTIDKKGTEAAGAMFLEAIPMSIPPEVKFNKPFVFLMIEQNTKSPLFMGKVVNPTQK
T1 sequence (P01009 25-418 S77F): as the sequence (P01009 25-418 E366K) above, with S53F, K342E counted along it
T2 sequence (P01009 25-418): as the sequence (P01009 25-418 E366K) above, with K342E counted along it

half-life (Pharmacokinetics in rats) [min]	clearance (Pharmacokinetics in rats) [mL/min/kg]	Vd (Pharmacokinetics in rats) [L/kg]	Compound	secretion of Z A1AT as measured by ELISA (human Z A1AT)	secretion of Siiyama A1AT as measured by ELISA (human Siiyama A1AT)	secretion of M A1AT as measured by ELISA (human M A1AT)
63	10.6	1	CNC(=O)c1ccc(Cn2cnccc2=O)cc1 [N-methyl-4-((6-oxopyrimidin-1(6H)-yl)methyl)benzamide]	stimulates secretion of Z A1AT in a dose dependent manner	–	–
–	–	–	O=C(CCCCCCC(=O)Nc1ccccc1)NO [SAHA, suberanilohydroxamic acid, reference compound]	–	stimulates an increase in Siiyama A1AT secretion	stimulates an increase in M A1AT secretion
52	10.6	0.72	[2H]C([2H])([2H])N(C(=O)c1ccc(Cn2cnccc2=O)cc1)C([2H])([2H])[2H] [N,N-(bis-methyl-d3)-4-((6-oxopyrimidin-1(6H)-yl)methyl)benzamide]	stimulates secretion of Z A1AT in a dose dependent manner	–	–
